Measurements reported in patent US11884642B2, “Compounds useful as potassium channel openers” (ACOUSIA THERAPEUTICS GMBH, priority 2017, dated 2024).

Test system: guinea pigs
Assay: Ototoxic drug-induced (kanamycin/furosemide) hearing loss model in vivo, CAP threshold recordings of the auditory nerve
Design: species or system guinea pig
Procedure: The inventive compounds were also tested in vivo. In this context, for repeated recording of the Compound Action Potential (CAP) of the auditory nerve, guinea pigs were bilaterally implanted with a permanent gold electrode at the round window niche. The round window is an opening from the middle ear into the inner ear. The gold electrodes were connected to a miniature plug on the skull. During the experiments, audiograms were determined between 0.5 and 45.6 kHz, at a resolution of 8 steps per octave. An automated threshold search algorithm was applied.
After a baseline audiogram was measured, the animals were pretreated with an inventive compound, as an ion channel activator, via local application to the middle ear. The corresponding solution of the inventive compound was removed after an exposure time, e. g. after 2 hours. Then, the middle ear was rinsed and dried out before CAP recordings were performed to assess threshold shifts.
Then, deafness was induced with the Guinea pigs by local application to the middle ear of a mixture of at least one ototoxic agent and at least one inventive compound. E. g. kanamycin, furosemide or mixtures of these compounds can be used as ototoxic agents.
The resulting CAP response thresholds were compared to ears which were exposed to the ototoxic agents alone.
All animals received care in accordance with the standards described by the German ‘Law on Protecting Animals’ (Tierschutzgesetz) and with the European Directive 2010/63/EU for the protection of animals used for experimental purposes. Experiments were approved by the local authorities (Application HN03/15).
All procedures were performed under anesthesia using a mixture of Fentanyl, Midazolam and Medetomidine. During surgery and measurements animals were kept on a 37° C. heating pad. For repeated recording of the Compound Action Potential (CAP) of the auditory nerve, guinea pigs were bilaterally implanted with a permanent gold electrode at the round window (RW) niche connected to a miniature plug on the skull. Audiograms were determined between 0.5 and 45.6 kHz, at a resolution of 8 steps per octave. An automated threshold search algorithm was applied.
After a baseline audiogram was measured, animals were pretreated with an ion channel activator, in this case with ACOU001, via local application to the middle ear. […]
The solution containing ACOU001 was removed after 2 hours and the middle ear rinsed and dried out before CAP recordings were performed to assess threshold shifts. […] After the final measurement on day 21, animals were sacrificed, cochleae fixed by perfusion with 4% paraformaldehyde and prepared for immunohistological analysis to quantify hair cell (HC) protection.

## O=C(NCc1ccc(S(F)(F)(F)(F)F)cc1)c1ccc(Cl)s1 [ACOU001, 5-Chloro-N-(4-(pentafluorosulfanyl)benzyl)thiophene-2-carboxamide]
7 and 21 days after kanamycin/furosemide plus compound
  CAP curves (threshold levels) over time after co-treatment: shifted to higher threshold levels after seven days but ameliorated after 21 days
After 21 days, all frequencies, co-treatment with kanamycin/furosemide
  reduction of hearing loss compared to the ototoxic drug alone: 25-40 dB SPL
Day 0, 2 hours local application to the middle ear, compared to baseline CAP-thresholds in untreated ears
  CAP-threshold loss after pretreatment: small, most likely conductive, hearing loss
Day 0, mid to high frequencies (5-11 kHz), 100 μM with 200 mg/ml kanamycin, 50 mg/ml furosemide, local to middle ear
  reduction of hearing loss compared to the ototoxic drug alone: ~25 dB SPL
